# Reference: the NIST ThermoML archive (doi:10.1016/j.fluid.2016.04.012)
# Numbers after ± are expanded uncertainties.
# Conditions: Liquid, Closed cell (Static) method
vapor or sublimation pressure (338.65 K) [kPa],vapor or sublimation pressure (337.85 K) [kPa],Compound
101.3 ± 1.1,–,C1CCOC1 [tetrahydrofuran]
–,101.3 ± 1.1,CO [methanol]
